Data as given in US20220175761A1, “BI-LIGAND DRUG CONJUGATE AND USE THEREOF” (COHERENT BIOPHARMA (SUZHOU), LIMITED, priority 2019, published 2022).
Numbered stars: 1 amine (or outer) side, 2 acyl side, 3 side chain; on linkers, the order of the positions; unused ones are H or OH. Square brackets hold non-standard residues; d marks the D form. Peptide text beside a SMILES is read from it. * marks the point of attachment. ξ: configuration not given here. X6 = CCc1c2c(nc3ccc(O)cc13)-c1cc3c(c(=O)n1C2)COC(=O)[C@@]3(CC)OC(=O)OCc1ccc(NC(=O)COCC(=O)NCCOCCOCCOCCOCCOCCn2nncc2CNC(=O)CCCCCN2C(=O)CC(*)C2=O)cc1; Pteroyl = Nc1nc2ncc(CNc3ccc(C(=O)*)cc3)nc2c(=O)[nH]1; γGlu = O=C(O)[C@H](CCC(=O)[*:2])N[*:1]; ξV = CC(C)C(N)C(=O)O

Legend:
[1] = tested on: KB, T-47D, NCI-H460, CALU-3, HuH-7, and LNCaP tumor cell lines; experiment: Inhibition of tumor cell expansion, CCK8 (CB-60SK); type: cell-based, human
Experimental: (§1) Cell lines: KB human oral epidermoid carcinoma cells, T-47D human breast cancer cells, NCI-H460 human lung cancer cells, CALU-3 human lung adenocarcinoma cells, HuH-7 human liver cancer cells and LNCaP human prostate cancer cells
(§2) The cells were prepared in advance, digested with trypsin, collected and counted; with a complete cell culture medium, KB cells were diluted to 2.5×10^4 cells/ml, T-47D cells were diluted to 1.3×10^4 cells/ml, NCI-H460 cells were diluted to 3.5×10^4 cells/ml, CALU-3 cells were diluted to 4.0×10^4 cells/ml, HuH-7 cells were diluted to 3.0×10^4 cells/ml, and LNCaP cells were diluted to 8.0×10^4 cells/ml; 100 μl of the diluted cell solution was added to each well; and negative control and blank control wells were set on each plate. The 96-well plates added with the cells were placed in an incubator at 37° C., 5% CO2 for culturing overnight.
The samples were diluted with a culture medium to desired concentrations (see Table 14). […]
(§3) To each well, 15 μl (10% of the liquid volume in a well) of a color developing solution from CCK-8 was added; the plates were incubated at 37° C. for an appropriate time (try to keep the OD value in the range of 1.0-2.0); the covers of the 96-well plates were removed, and the plates were read at 450 nm on a microplate reader (Molecular Devices Spectra MAX Plus). […]

[2] = tested on: KB, T-47D, NCI-H460, CALU-3, HuH-7, and LNCaP tumor cell lines; experiment: Inhibition of tumor cell expansion, CCK8 (CB-60S); type: cell-based, human
Experimental: as §1
as §2, with “2.0×10^4” for “2.5×10^4”, “1.5×10^4” for “1.3×10^4”, “2.0×10^4” for “3.5×10^4”, “3.0×10^4” for “4.0×10^4”, “4.0×10^4” for “3.0×10^4”, “well of 96-well plates;” for “well;”
The samples were diluted with a culture medium to desired concentrations (see Table 13). […]
as §3

[3] = tested on: KB, LNCaP, T-47D, RT4 and NCI-H460 tumor cell lines; experiment: Inhibition of tumor cell expansion, CCK8 (CB-10S); type: cell-based, human
Experimental: Cell lines: KB human oral epidermoid carcinoma cells, NCI-H460 human lung cancer cells, RT4 human bladder cancer cells, T-47D human breast cancer cells and LNcap human prostate cancer cells
The cells were prepared in advance, digested with trypsin, collected and counted; with a complete cell culture medium, KB cells were diluted to 3.5×10^4 cells/ml, LNCaP cells were diluted to 8.0×10^4 cells/ml, T-47D cells were diluted to 1.2×10^4 cells/ml, NCI-H460 cells were diluted to 2.5×10^4 cells/ml, and RT4 cells were diluted to 1.2×10^4 cells/ml; to each well of 96-well plates, 100 μl of the diluted cell solution was added; and negative control and blank control wells were set on each plate. The 96-well plates added with the cells were placed in an incubator at 37° C., 5% CO2 for culturing overnight.
The samples were diluted with a culture medium to desired concentrations (see Table 12). […]
as §3

FOLH1 = FOLH1 (Homo sapiens, UniProt Q04609); experiment: BIAcore T200: binding of FOLH1 to compound-FOLR1 complex; parameters: purchased Sino Biologicals (FOLH1); R&D System (FOLR1) 15877-H07H (FOLH1); 5646-FR (FOLR1)
Sequence of FOLH1 (Q04609 44-750 limits assumed): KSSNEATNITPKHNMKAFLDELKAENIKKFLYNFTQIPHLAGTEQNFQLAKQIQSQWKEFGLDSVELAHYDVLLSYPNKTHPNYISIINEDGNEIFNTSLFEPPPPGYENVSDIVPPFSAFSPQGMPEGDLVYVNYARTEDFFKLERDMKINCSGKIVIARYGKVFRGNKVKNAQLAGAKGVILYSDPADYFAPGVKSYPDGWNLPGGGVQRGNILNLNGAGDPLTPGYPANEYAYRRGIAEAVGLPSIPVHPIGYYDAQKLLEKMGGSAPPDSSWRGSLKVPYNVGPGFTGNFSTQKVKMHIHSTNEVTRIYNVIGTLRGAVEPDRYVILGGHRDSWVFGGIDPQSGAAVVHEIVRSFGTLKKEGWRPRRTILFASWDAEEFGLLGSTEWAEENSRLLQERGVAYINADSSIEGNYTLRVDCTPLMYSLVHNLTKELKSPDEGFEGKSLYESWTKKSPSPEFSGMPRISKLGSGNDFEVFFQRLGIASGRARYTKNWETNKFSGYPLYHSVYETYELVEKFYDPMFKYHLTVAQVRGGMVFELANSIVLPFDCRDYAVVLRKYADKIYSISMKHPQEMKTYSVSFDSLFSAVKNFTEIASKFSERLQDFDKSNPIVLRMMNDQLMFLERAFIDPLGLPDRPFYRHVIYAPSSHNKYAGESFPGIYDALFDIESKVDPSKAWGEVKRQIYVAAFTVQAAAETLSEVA
Sequence of FOLH1 (P15328 25-233 partner limits assumed): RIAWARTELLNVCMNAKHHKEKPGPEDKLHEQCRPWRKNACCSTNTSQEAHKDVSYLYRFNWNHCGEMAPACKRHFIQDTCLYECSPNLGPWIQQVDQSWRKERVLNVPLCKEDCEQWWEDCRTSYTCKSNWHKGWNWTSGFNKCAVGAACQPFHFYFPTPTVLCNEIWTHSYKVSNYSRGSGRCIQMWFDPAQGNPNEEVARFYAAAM
Source text: CM5 chip was conjugated with a ligand: FOLR1 (R&D System, Cat #: 5646-FR)
Analyte: CB-20BK, FA-MMAE and FOLH1 (Sino Biologicals, Cat #: 15877-H07H)
According to BIAcore T200 (GE) operating manual, FOLR1 was conjugated to the CM5 chip; CB-20BK or FA-MMAE was loaded first, and then FOLH1 was loaded; and the binding of FOLH1 to the CB-20BK-FOLR1 complex was detected.

[4] = tested on: 22RV1 (human prostate cancer cells); experiment: Inhibition of cell line proliferation, CCK8; type: cell-based
Source text: (§4) Since different cells have different sensitivity to a cell proliferation inhibitory toxicity of the payload in a ligand conjugate, the quantitative analysis may be interfered occasionally. A series of cell lines with known expression levels of receptors of different ligands were selected and tested for the response to inhibitory effects of the cell proliferation of a ligand conjugate and a single payload. The IC50 ratio of a single payload to that of a ligand conjugate in same cell line were taken to remove such interference.
(§5) Experimental operations: LNCaP and 22RV1 cells were prepared in advance, counted, and plated in 96-well cell culture plates at a cell density of 4×10^4 cells/ml and 2.0×10^4 cells/ml, respectively (100 μl/well); negative control and blank control wells were set on each plate. After adherent cell culture overnight, the diluted samples to be tested were added at 50 μl/well. The plates were placed in an incubator at 37° C., 5% CO2 and cultured for 68-72 hours. To each well, 15 μl (10% of the liquid volume in a well) of a color developing solution from CCK8 was added; and the plates were incubated at 37° C. for 45-70 minutes and each plate was read at 450 nm on a microplate reader. The data was edited using SoftMax Pro and a 4-P fitting curve was plotted.

FOLR1 = target: T1, FOLR1 (Homo sapiens, UniProt P15328); experiment: BIAcore T200 binding affinity to FOLR1 (CM5 chip conjugated with FOLR1)
T1 construct: purchased R&D System 5646-FR
T1 sequence (P15328 25-233 limits assumed): as the sequence (P15328 25-233 partner limits assumed) above
Source text: Buffer: HBS-EP+ buffer 10× (GE, Cat #: BR100669), diluted 10 folds with deionized water before use.
In the experiment, CM5 chip was conjugated with ligand FOLR1 (R&D System, Cat #: 5646-FR).

[5] = tested on: LNCaP (human prostate cancer cells); experiment: Inhibition of cell line proliferation, CCK8; type: cell-based
Source text: as §4
as §5, with “plotted. […]” for “plotted.”

CCc1c2c(nc3ccc(O)cc13)-c1cc3c(c(=O)n1C2)COC(=O)[C@@]3(CC)OC(=O)OCc1ccc(NC(=O)[C@H](CCCNC(N)=O)NC(=O)COCC(=O)NCCOCCOCCOCCOCCOCCn2cc(C[C@H](NC(=O)[C@H](CCCCN)NC(=O)[C@H](CC(=O)O)NC(=O)[C@H](CC(=O)O)NC(=O)Cc3ccc(CNC(=O)NCCCC[C@H](NC(=O)N[C@@H](CCC(=O)O)C(=O)O)C(=O)O)cc3)C(=O)N[C@@H](CCCCNC(=O)CC[C@H](NC(=O)c3ccc(NCc4cnc5[nH]c(N)nc(=O)c5n4)cc3)C(=O)O)C(N)=O)nn2)cc1 [CB-60SK]
inhibitory effect on growth and expansion of tumor cell lines ([1]; 72 hours, CCK-8): has an inhibitory effect | IC50 compared between cell lines ([1]; LNCaP and HuH-7 versus T-47D, NCI-H460, CALU-3 and KB): significantly lower

CCc1c2c(nc3ccc(O)cc13)-c1cc3c(c(=O)n1C2)COC(=O)[C@@]3(CC)OC(=O)OCc1ccc(NC(=O)[C@H](CCCNC(N)=O)NC(=O)COCC(=O)NCCOCCOCCOCCOCCOCCn2cc(C[C@H](NC(=O)[C@H](CC(=O)O)NC(=O)[C@H](CC(=O)O)NC(=O)Cc3ccc(CNC(=O)NCCCC[C@H](NC(=O)N[C@@H](CCC(=O)O)C(=O)O)C(=O)O)cc3)C(=O)N[C@@H](CCCCNC(=O)CC[C@H](NC(=O)c3ccc(NCc4cnc5[nH]c(N)nc(=O)c5n4)cc3)C(=O)O)C(N)=O)nn2)cc1 [CB-60S]
inhibitory effect on growth and expansion of tumor cell lines ([2]; 72 hours, CCK-8): has an inhibitory effect | IC50 compared between cell lines ([2]; LNCaP and HuH-7 versus NCI-H460, KB, T-47D and CALU-3): significantly lower

CCc1c2c(nc3ccc(O)cc13)-c1cc3c(c(=O)n1C2)COC(=O)[C@@]3(CC)OC(=O)OCc1ccc(NC(=O)COCC(=O)NCCOCCOCCOCCOCCOCCn2nncc2CNC(=O)CCCCCN2C(=O)CC(SC[C@H](NC(=O)CC[C@H](NC(=O)c3ccc(NCc4cnc5[nH]c(N)nc(=O)c5n4)cc3)C(=O)O)C(=O)N[C@@H](CCCCN)C(=O)N[C@@H](CCC(=O)O)C(=O)N[C@@H](Cc3ccccc3)C(=O)N[C@@H](CC(C)C)C(=O)N[C@@H](Cc3cnc[nH]3)C(=O)N3CCC[C@H]3C(=O)N[C@@H](CO)C(=O)N[C@@H](CCCCN)C(=O)NC(C(=O)N[C@@H](CC(=O)O)C(=O)N[C@@H](CC(C)C)C(=O)N3CCC[C@H]3C(=O)N[C@@H](CCCNC(=N)N)C(=O)O)C(C)C)C2=O)cc1 (stereo partly drawn) [CB-10S] ({Pteroyl-γGlu}-C(X6)KEFLHPSK[ξV]DLPR-OH)
inhibitory effect on growth and expansion of tumor cell lines ([3]; 72 hours, CCK-8): has an inhibitory effect | IC50 compared between cell lines ([3]; KB, LNcap, T-47D and RT4 versus NCI-H460): significantly lower

CC[C@@]1(O)C(=O)OCc2c1cc1n(c2=O)Cc2c-1nc1cc(F)c(C)c3c1c2[C@@H](NC(=O)COCNC(=O)CNC(=O)[C@H](Cc1ccccc1)NC(=O)CNC(=O)CNC(=O)CCCCCN1C(=O)CC(SC[C@H](NC(=O)CC[C@H](NC(=O)c2ccc(NCc4cnc5[nH]c(N)nc(=O)c5n4)cc2)C(=O)O)C(=O)N[C@@H](CCCCN)C(N)=O)C1=O)CC3 (stereo partly drawn) [FA-MMAE, reference compound]
Binding of compound-FOLR1 complex to FOLH1 solution (FOLH1; FOLH1 concentration 0.0625 μM): −1 RU | Binding of compound-FOLR1 complex to FOLH1 solution (FOLH1; FOLH1 concentration 0.125 μM): 4.2 RU | Binding of compound-FOLR1 complex to FOLH1 solution (FOLH1; FOLH1 concentration 0.25 μM): 8.4 RU | Binding of compound-FOLR1 complex to FOLH1 solution (FOLH1; FOLH1 concentration 0.5 μM): 9.8 RU | amount of FOLH1 bound to compound-FOLR1 complex (in words) (FOLH1; FOLH1 solution at a high concentration): tends to saturate at a high concentration | IC50 ratio (MMAE/conjugate) ([4]; 22RV1): 0.006 | IC50 ([4]; 22RV1, 68-72 hours, CCK8): 1.01 µM | kd (FOLR1; FOLR1 on CM5 chip, N/D = no specific binding was detected): 0.000115 s⁻¹ | kon (FOLR1; read-out: ka): 1.79e+06 M⁻¹ s⁻¹ | IC50 ratio (MMAE/conjugate) ([5]; LNCaP): 0.010 | IC50 ratio in LNCaP relative to IC50 ratio in 22RV1 (times higher / factor) ([5]; LNCaP versus 22RV1): 1.5 | IC50 ([5]; LNCaP, 68-72 hours, CCK8): 0.264 µM
